Source: the NIST ThermoML archive (doi:10.1021/je0602723)

Assay: activity coefficient (dimensionless); of the first substance listed, at infinite dilution; xn = mol fraction of the nth substance listed
Conditions: Liquid, Chromatography, x1 = 0

Cc1ccccc1 [toluene] + CCOS(=O)(=O)[O-].CCn1cc[n+](C)c1
Conditions	activity coefficient
312.3 K	5.77
323 K	5.62
333.5 K	5.45
343.9 K	5.29
354.4 K	5.08
364.7 K	4.88
